Source: US10669269B2, “Substituted N-(1H-indazol-4-yl)imidazo[1,2-a]pyridine-3-carboxamide compounds as type III receptor tyrosine kinase inhibitors” (ARRAY BIOPHARMA INC., priority 2010, dated 2020)
Structures can show the parent of a compound that is named as a salt.

Key:
c-KIT = target: T1, c-KIT (Homo sapiens, UniProt P10721); experiment: c-KIT Cell-Based Assay (Example D); details: averaged IC50; phospho-c-KIT in M-07e cells stimulated with 150 ng/ml recombinant human SCF; read-out: cKIT Cell ELISA IC50
T1 construct: M-07e cells (human acute megakaryoblastic leukemia cell line) were serum-starved for 4 hours; endogenous in cells; host or cells: M-07e cells (human acute megakaryoblastic leukemia cell line)
Method: The ability of compounds of Formula I to inhibit c-KIT activation in cells was determined by the following assay. M-07e cells (human acute megakaryoblastic leukemia cell line) were serum-starved for 4 hours prior to treatment with compounds of Formula I for 1 hour. The concentration of compounds of Formula I was varied over a 9-point, 3-fold dilution series with 5,000 nM typically being the highest dose. Cell culture and treatment were carried out in a humidified 37° C., 5% CO2 incubator. Treated cells were stimulated with 150 ng/ml recombinant human SCF for 4 minutes to induce activation of c-KIT. Cells were lysed in a manner which preserves phosphoproteins, and the lysate was analyzed by ELISA (R&D Systems, Human Phospho-SCF R DuoSet IC DYC3527), in which total c-KIT protein in the lysate is captured and phosphotyrosine residues of c-Kit are detected. A standard curve, made using purified phospho-SCF R protein, was used to quantify phospho-c-KIT in compound-treated wells. A standard 4-parameter logistic model was fit to the inhibitor dose response curves, with the IC50 being defined as the concentration of inhibitor giving 50 percent of control (POC).

cFMS = target: T2, cFMS (Homo sapiens, UniProt P07333); experiment: cFMS Cell-Based Assay (Example C); details: averaged IC50; phospho-cFMS in THP-1 cells stimulated with 250 ng/mL recombinant human MCSF; read-out: cFMS Cell ELISA IC50
T2 construct: THP-1 cells (human acute monocytic leukemia cell line) were serum-starved for 4 hours; endogenous in cells; host or cells: THP-1 cells (human acute monocytic leukemia cell line)
Method: The ability of compounds of Formula I to inhibit cFMS activation in cells was determined by the following assay. THP-1 cells (human acute monocytic leukemia cell line) were serum-starved for 4 hours prior to treatment with compounds of Formula I for 1 hour. The concentration of compounds of Formula I was varied over a 9-point, 3-fold dilution series with 5,000 nM typically being the highest dose. Cell culture and treatment were carried out in a humidified 37° C., 5% CO2 incubator. Treated cells were stimulated with 250 ng/mL recombinant human MCSF for 1 minute to induce activation of cFMS. Cells were lysed in a manner which preserves phosphoproteins, and the lysate was analyzed by ELISA (R&D Systems, Human Phospho-M-CSF R DuoSet IC DYC3268), in which total cFMS protein in the lysate is captured and phosphotyrosine residues of cFMS are detected. A standard curve, made using purified phospho-M-CSF R protein, was used to quantify phospho-c-FMS in compound-treated wells. A standard 4-parameter logistic model was fit to the inhibitor dose response curves, with the IC50 being defined as the concentration of inhibitor giving 50 percent of control (POC).

PDGFR beta = target: T3, PDGFR beta (Homo sapiens, UniProt P09619); experiment: Phospho PDGFR LICOR Cell Assay (Example B); assay type: cell-based; details: averaged IC50; PDGFR beta phosphorylation in HS27 human fibroblast cell line, PDGF-BB stimulation 10 minutes, normalized to total ERK
T3 construct: endogenous in cells; host or cells: HS27 human fibroblast cell line
Method: Compounds were screened for inhibition of PDGFR beta phosphorylation in the HS27 human fibroblast cell line. Cells were seeded into a 96 well tissue culture plate, then incubated overnight in a 37° C./5% CO2 incubator. The following day, cells were treated for one hour with test compound dilutions. After stimulation with PDGF-BB ligand for 10 minutes, cells were washed with PBS and fixed in 3.7% formaldehyde in PBS for 10 minutes. This was followed by washing in PBS/0.2% Triton X-100 and permeabilizing in 100% MeOH for 10 minutes. Cells were incubated in blocking buffer for 1 hour. Antibodies to phosphorylated PDGFRβ and total ERK were added to the cells and incubated for 3 hours. After washing with PBS/0.2% Triton X-100, the cells were incubated with fluorescently-labeled secondary antibodies for an additional hour. Cells were then washed with PBS and analyzed for fluorescence at both wavelengths using the Odyssey Infrared Imaging System (LI-COR Biosciences). Phosphorylated PDGFR signal was normalized to total ERK signal. A standard 4-parameter logistic model was fit to the inhibitor dose response curves, with the IC50 being defined as the concentration of inhibitor giving 50 percent of control (POC).

T2 sequence (P07333 20-972): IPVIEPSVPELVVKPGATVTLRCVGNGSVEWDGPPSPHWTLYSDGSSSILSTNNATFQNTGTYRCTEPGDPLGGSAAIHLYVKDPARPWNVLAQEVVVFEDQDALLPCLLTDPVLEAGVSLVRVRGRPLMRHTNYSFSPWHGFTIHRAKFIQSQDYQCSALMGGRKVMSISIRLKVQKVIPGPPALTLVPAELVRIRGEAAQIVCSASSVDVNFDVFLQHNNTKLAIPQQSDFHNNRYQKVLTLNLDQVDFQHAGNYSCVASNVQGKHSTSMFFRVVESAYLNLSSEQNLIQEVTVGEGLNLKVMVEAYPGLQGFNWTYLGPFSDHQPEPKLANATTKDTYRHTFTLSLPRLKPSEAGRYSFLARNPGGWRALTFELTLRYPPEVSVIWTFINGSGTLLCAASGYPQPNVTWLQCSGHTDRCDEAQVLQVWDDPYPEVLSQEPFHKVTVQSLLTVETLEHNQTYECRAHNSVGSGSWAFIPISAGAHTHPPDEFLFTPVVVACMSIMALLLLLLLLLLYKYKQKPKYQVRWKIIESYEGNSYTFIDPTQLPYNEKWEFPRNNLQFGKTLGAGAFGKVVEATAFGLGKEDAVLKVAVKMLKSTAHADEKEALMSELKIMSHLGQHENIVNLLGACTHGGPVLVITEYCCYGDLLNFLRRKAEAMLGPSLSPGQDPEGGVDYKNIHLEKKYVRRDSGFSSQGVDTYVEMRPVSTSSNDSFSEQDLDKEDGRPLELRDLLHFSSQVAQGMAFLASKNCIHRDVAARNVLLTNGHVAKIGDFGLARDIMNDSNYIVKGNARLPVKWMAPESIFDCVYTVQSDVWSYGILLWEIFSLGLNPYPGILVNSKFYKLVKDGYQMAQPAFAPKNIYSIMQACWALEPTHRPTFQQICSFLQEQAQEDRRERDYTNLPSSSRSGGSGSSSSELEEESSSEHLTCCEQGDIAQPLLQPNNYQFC
T3 sequence (P09619 33-1106): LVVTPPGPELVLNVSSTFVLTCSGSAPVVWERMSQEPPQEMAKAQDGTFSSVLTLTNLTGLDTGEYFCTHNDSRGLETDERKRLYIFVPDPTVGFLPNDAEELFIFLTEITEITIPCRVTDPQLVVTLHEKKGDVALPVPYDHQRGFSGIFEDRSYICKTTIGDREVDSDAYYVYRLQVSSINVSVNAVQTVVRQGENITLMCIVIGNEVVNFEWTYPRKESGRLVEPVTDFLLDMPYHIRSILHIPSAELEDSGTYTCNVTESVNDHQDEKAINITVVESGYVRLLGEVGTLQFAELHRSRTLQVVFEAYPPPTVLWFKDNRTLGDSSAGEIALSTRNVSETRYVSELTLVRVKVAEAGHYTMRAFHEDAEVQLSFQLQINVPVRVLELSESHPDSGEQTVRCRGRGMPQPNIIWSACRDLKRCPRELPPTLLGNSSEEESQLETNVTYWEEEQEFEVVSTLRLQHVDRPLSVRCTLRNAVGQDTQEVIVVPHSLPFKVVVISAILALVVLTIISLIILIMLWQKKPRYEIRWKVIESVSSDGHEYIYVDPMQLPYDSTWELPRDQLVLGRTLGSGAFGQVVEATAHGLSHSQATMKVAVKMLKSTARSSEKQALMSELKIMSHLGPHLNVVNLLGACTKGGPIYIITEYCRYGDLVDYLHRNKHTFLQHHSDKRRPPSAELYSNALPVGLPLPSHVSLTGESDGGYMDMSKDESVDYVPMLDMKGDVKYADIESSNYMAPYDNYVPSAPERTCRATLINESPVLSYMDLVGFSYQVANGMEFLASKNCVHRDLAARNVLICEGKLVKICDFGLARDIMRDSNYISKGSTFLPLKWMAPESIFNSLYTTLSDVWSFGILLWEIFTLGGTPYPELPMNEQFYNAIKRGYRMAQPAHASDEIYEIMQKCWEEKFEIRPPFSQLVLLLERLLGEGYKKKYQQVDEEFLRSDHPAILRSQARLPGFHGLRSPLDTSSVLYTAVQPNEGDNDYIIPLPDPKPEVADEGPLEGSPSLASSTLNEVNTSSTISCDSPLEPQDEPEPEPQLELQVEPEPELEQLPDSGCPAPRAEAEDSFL
T1 sequence (P10721 26-976): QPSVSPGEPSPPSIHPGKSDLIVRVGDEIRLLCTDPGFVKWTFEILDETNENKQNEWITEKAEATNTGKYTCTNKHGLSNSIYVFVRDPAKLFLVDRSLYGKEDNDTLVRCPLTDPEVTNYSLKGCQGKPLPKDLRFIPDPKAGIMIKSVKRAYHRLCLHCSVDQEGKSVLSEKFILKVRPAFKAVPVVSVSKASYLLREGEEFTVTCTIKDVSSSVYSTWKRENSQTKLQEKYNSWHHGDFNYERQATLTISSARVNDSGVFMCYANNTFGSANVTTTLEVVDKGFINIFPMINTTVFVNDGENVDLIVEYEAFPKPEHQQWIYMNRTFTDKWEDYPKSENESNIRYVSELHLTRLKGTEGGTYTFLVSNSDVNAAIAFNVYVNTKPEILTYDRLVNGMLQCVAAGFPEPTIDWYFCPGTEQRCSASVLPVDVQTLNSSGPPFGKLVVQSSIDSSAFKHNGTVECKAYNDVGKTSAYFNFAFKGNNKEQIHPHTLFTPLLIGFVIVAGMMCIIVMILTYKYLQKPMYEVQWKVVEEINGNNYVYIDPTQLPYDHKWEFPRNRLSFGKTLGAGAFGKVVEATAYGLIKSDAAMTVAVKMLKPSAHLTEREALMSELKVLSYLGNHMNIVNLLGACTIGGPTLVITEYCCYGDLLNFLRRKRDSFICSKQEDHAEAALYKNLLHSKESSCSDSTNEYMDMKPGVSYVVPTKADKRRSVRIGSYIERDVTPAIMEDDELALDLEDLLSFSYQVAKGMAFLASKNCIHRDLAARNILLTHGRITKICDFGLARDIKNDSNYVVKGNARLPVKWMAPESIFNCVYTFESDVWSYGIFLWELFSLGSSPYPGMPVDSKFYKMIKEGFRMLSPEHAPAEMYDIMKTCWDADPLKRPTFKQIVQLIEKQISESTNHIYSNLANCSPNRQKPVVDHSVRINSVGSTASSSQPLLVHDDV

Compound | IC50 (c-KIT) [nM] | IC50 (cFMS) [nM] | IC50 (PDGFR beta) [nM]
Cc1nn(Cc2cc(C)n(C(C)C)n2)c2cccc(NC(=O)c3cnc4cc(OCCN5CC6(CN(C)C6)C5)ccn34)c12 [Example 8, N-(1-((1-Isopropyl-5-methyl-1H-pyrazol-3-yl)methyl)-3-methyl-1H-indazol-4-yl)-7-(2-(6-methyl-2,6-diazaspiro[3.3]heptan-2-yl)ethoxy)imidazo[1,2-a]pyridine-3-carboxamide] | 122 | 33.6 | 32.6
Cc1nn(Cc2cc(C)n(C(C)C)n2)c2cccc(NC(=O)c3cnc4cc(OCCN5C[C@@H](C)N(C)[C@@H](C)C5)ccn34)c12 [Example 9, N-(1-((1-isopropyl-5-methyl-1H-pyrazol-3-yl)methyl)-3-methyl-1H-indazol-4-yl)-7-(2-((3S,5R)-3,4,5-trimethylpiperazin-1-yl)ethoxy)imidazo[1,2-a]pyridine-3-carboxamide] | 143 | 21.2 | 166
Cc1nn(Cc2cc(C)n(C(C)C)n2)c2cccc(NC(=O)c3cnc4cc(OCCN5CCN(C(C)C)CC5)ccn34)c12 [Example 10, N-(1-((1-Isopropyl-5-methyl-1H-pyrazol-3-yl)methyl)-3-methyl-1H-indazol-4-yl)-7-(2-(4-isopropylpiperazin-1-yl)ethoxy)imidazo[1,2-a]pyridine-3-carboxamide] | 141 | 25.3 | 40.8
Cc1nn(Cc2cc(C)n(C(C)C)n2)c2cccc(NC(=O)c3cnc4cc(OCCN5CCCN(C)CC5)ccn34)c12 [Example 11, N-(1-((1-isopropyl-5-methyl-1H-pyrazol-3-yl)methyl)-3-methyl-1H-indazol-4-yl)-7-(2-(4-methyl-1,4-diazepan-1-yl)ethoxy)imidazo[1,2-a]pyridine-3-carboxamide] | 157 | 26.2 | 46.5
Cc1nn(Cc2csc(C(C)C)n2)c2cccc(NC(=O)c3cnc4cc(OCCN5CCN(C)CC5)ccn34)c12 [Example 12, N-(1-((2-isopropylthiazol-4-yl)methyl)-3-methyl-1H-indazol-4-yl)-7-(2-(4-methylpiperazin-1-yl)ethoxy)imidazo[1,2-a]pyridine-3-carboxamide] | 50.4 | 11.4 | 44
Cc1nn(Cc2csc(C(C)C)n2)c2cccc(NC(=O)c3cnc4cc(OCCN5CC6(CN(C)C6)C5)ccn34)c12 [Example 13, N-(1-((2-isopropylthiazol-4-yl)methyl)-3-methyl-1H-indazol-4-yl)-7-(2-(6-methyl-2,6-diazaspiro[3.3]heptan-2-yl)ethoxy)imidazo[1,2-a]pyridine-3-carboxamide] | 76.3 | 12.9 | 11.3
Cc1nn(Cc2csc(C(C)C)n2)c2cccc(NC(=O)c3cnc4cc(OCCN5CCN(C(C)C)CC5)ccn34)c12 [Example 15, 7-(2-(4-isopropylpiperazin-1-yl)ethoxy)-N-(1-((2-isopropylthiazol-4-yl)methyl)-3-methyl-1H-indazol-4-yl)imidazo[1,2-a]pyridine-3-carboxamide] | 60.6 | 12 | 46.2
Cc1nn(Cc2cc(C)n(C(C)C)n2)c2cccc(NC(=O)c3cnc4cc(OCCN5CCN(C)[C@@H](C)C5)ccn34)c12 [Example 29, (S)-7-(2-(3,4-dimethylpiperazin-1-yl)ethoxy)-N-(1-((1-isopropyl-5-methyl-1H-pyrazol-3-yl)methyl)-3-methyl-1H-indazol-4-yl)imidazo[1,2-a]pyridine-3-carboxamide] | 162 | 28.6 | 44.1
Cc1nn(Cc2csc(C(C)C)n2)c2cccc(NC(=O)c3cnc4cc(OCCN5CCN(C)[C@@H](C)C5)ccn34)c12 [Example 30, (S)-7-(2-(3,4-dimethylpiperazin-1-yl)ethoxy)-N-(1-((2-isopropylthiazol-4-yl)methyl)-3-methyl-1H-indazol-4-yl)imidazo[1,2-a]pyridine-3-carboxamide] | 65.3 | 17.6 | 17.4
Cc1nn(Cc2ccn(C(C)C)n2)c2cccc(NC(=O)c3cnc4cc(OCCN5CCN(C)CC5)ccn34)c12 [Example 48, N-(1-((1-isopropyl-1H-pyrazol-3-yl)methyl)-3-methyl-1H-indazol-4-yl)-7-(2-(4-methylpiperazin-1-yl)ethoxy)imidazo[1,2-a]pyridine-3-carboxamide bis hydrochloride] | 45.1 | 13.3 | 47.7
Cc1nn(Cc2ccn(C(C)C)n2)c2cccc(NC(=O)c3cnc4cc(OCCN5CCN(C(C)C)CC5)ccn34)c12 [Example 49, N-(1-((1-isopropyl-1H-pyrazol-3-yl)methyl)-3-methyl-1H-indazol-4-yl)-7-(2-(4-isopropylpiperazin-1-yl)ethoxy)imidazo[1,2-a]pyridine-3-carboxamide] | 53.5 | 11.8 | 9.7
Cc1ccc(-c2ccn3c(C(=O)Nc4cccc5c4c(C)nn5Cc4cccc(C)n4)cnc3c2)cn1 [Example 50, N-(3-methyl-1-((6-methylpyridin-2-yl)methyl)-1H-indazol-4-yl)-7-(6-methylpyridin-3-yl)imidazo[1,2-a]pyridine-3-carboxamide di-hydrochloride] |  | 5.8 | 
Cc1cccc(Cn2nc(C)c3c(NC(=O)c4cnc5cc(OCCN6CCCC6)ccn45)cccc32)n1 [Example 55, N-(3-methyl-1-((6-methylpyridin-2-yl)methyl)-1H-indazol-4-yl)-7-(2-(pyrrolidin-1-yl)ethoxy)imidazo[1,2-a]pyridine-3-carboxamide dihydrochloride] |  | 40.1 | 305
Cc1cccc(Cn2nc(C)c3c(NC(=O)c4cnc5cc(-c6c(C)n[nH]c6C)ccn45)cccc32)n1 [Example 69, 7-(3,5-dimethyl-1H-pyrazol-4-yl)-N-(3-methyl-1-((6-methylpyridin-2-yl)methyl)-1H-indazol-4-yl)imidazo[1,2-a]pyridine-3-carboxamide] |  | 8.2 | 
COCCNCCc1ccn2c(C(=O)Nc3cccc4c3c(C)nn4Cc3cccc(C)n3)cnc2c1 [Example 74, 7-(2-(2-methoxyethylamino)ethyl)-N-(3-methyl-1-((6-methylpyridin-2-yl)methyl)-1H-indazol-4-yl)imidazo[1,2-a]pyridine-3-carboxamide] |  | 79.5 | 
O=C(Nc1cccc2c1cnn2CC1CCCCO1)c1cnc2ccccn12 (stereo not shown) [Example 128, N-(1-((tetrahydro-2H-pyran-2-yl)methyl)-1H-indazol-4-yl)imidazo[1,2-a]pyridine-3-carboxamide] |  | 131 | 
COCCOc1ccn2c(C(=O)Nc3cccc4c3cnn4Cc3cccc(O)c3)cnc2c1 [Example 130, N-(1-(3-hydroxybenzyl)-1H-indazol-4-yl)-7-(2-methoxyethoxy)imidazo[1,2-a]pyridine-3-carboxamide] |  | 442 | 114
COCCOc1ccn2c(C(=O)Nc3cccc4c3cnn4-c3ccccc3)cnc2c1 [Example 133, 7-(2-Methoxyethoxy)-N-(1-phenyl-1H-indazol-4-yl)imidazo[1,2-a]pyridine-3-carboxamide] |  | 99.1 | 1000
